Assay in all cases: inhibition of tumour cell growth, NCI panel, 48 h
Experiment [1] concerns 786-0.
The test system of experiment [2] is A498.
Experiment [3] has as its system ACHN.
Experiment [4] has as its system HOP-92.
Experiment [5] concerns IGROV-1.
Experiment [6] has as its system LOX IMVI.
Experiment [7] has as its system M14.
Experiment [8] has as its system NCI-H226.
Experiment [9] has as its system NCI-H460.
The test system of experiment [10] is NCI-H522.
The subject of experiment [11] is OVCAR-5.
For experiment [12], the system named is OVCAR-8.
Experiment [13] deals with RXF 393.
Experiment [14] has as its system SF-268.
Experiment [15] relates to SNB-75.
The subject of experiment [16] is SW-620.
Experiment [17] deals with U-251.
Experiment [18] has as its system UACC-257.
For experiment [19], the system named is NCI-H23.

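Growth conditions: 96-well plates. Treatment: test compound, 48 hours, 5 concentrations. Analysis: linear interpolation between bracketing concentrations; unreached endpoints set to highest concentration. GI50 is the concentration that inhibits growth by half.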 Calls of active or inactive are those of the source. Rule as the data show it: active = GI50 up to about 1.1 µM and inactive = higher.

Take `CC1=C2C3OC(=O)C(C)C3C(O)C[C@@]2(C)C(=O)CC1` (stereo partly drawn): the GI50 in experiment [1], in experiment [2], in [3], in experiment [4], in experiment [5] and in experiment [6] was > 100 µM (inactive) throughout. Besides, the GI50 in experiment [7], in [8], in experiment [9], in experiment [10], in experiment [11] and in experiment [12] was > 100 µM (inactive) throughout. Further, the GI50 in experiment [13], in [14], in experiment [15], in experiment [16], in experiment [17] and in [18] was > 100 µM (inactive) each time.

Regarding `Cc1ccc(/C=C/C(=O)c2sc(-n3nc(-c4ccccc4)cc3-c3ccccc3)nc2C)cc1`, the GI50 in experiment [1] is > 100 µM (inactive); in experiment [2], > 100 µM (inactive); in experiment [3] it was 65.8 µM (inactive); in experiment [4], > 100 µM (inactive); in experiment [5] it was > 100 µM (inactive); in experiment [6], > 100 µM (inactive). The GI50 in experiment [8] was > 100 µM (inactive); in [19] it was > 100 µM (inactive); in experiment [9], > 100 µM (inactive); in experiment [10], 87.5 µM (inactive); in [11] it was > 100 µM (inactive); in experiment [12] it was > 100 µM (inactive). In addition, the GI50 in [13] was > 100 µM (inactive); in experiment [14], > 100 µM (inactive); in experiment [15], 4.26 µM (inactive); in experiment [16], > 100 µM (inactive); in [17], > 100 µM (inactive); in [18], > 100 µM (inactive).

On to `CC(=O)Nc1ccc(-c2nnc(SCC(=O)Nc3cccc(C)c3)o2)cc1`, for which the GI50 is 12.8 µM (inactive) in experiment [1]; 10.7 µM (inactive) in experiment [3]; 13 µM (inactive) in experiment [4]; 11.7 µM (inactive) in experiment [5]; 3.43 µM (inactive) in [6]; 13 µM (inactive) in experiment [7]. Also, the GI50 in experiment [8] is 14.4 µM (inactive); in experiment [19], 7.55 µM (inactive); in [9], 15 µM (inactive); in [10], 4.4 µM (inactive); in experiment [11] it was 13.4 µM (inactive); in [12] it was 16.3 µM (inactive). In addition, the GI50 in [13] is 12.8 µM (inactive); in [14], 24.5 µM (inactive); in experiment [15], 19.5 µM (inactive); in [16], 12.8 µM (inactive); in experiment [17] it was 13.5 µM (inactive); in experiment [18], 12.3 µM (inactive).

In the case of `COc1ccc2nc3cccc(C(=O)NCCN(C)C)c3nc2c1`, the GI50 in [1] is 2.25 µM (inactive); in [2], 1.55 µM (inactive); in [3], 0.689 µM (active); in experiment [4] it was 5.13 µM (inactive); in experiment [5], 2.67 µM (inactive); in experiment [6] it was 0.64 µM (active). Moreover, the GI50 in experiment [7] is 2.28 µM (inactive); in experiment [8], 1.32 µM (inactive); in experiment [19], 1.41 µM (inactive); in experiment [10], 2.73 µM (inactive); in [11] it was 1.51 µM (inactive); in [12], 1.46 µM (inactive). The GI50 was 1.55 µM (inactive) in experiment [13]; 2.15 µM (inactive) in [15]; 0.573 µM (active) in experiment [16]; 2.57 µM (inactive) in experiment [17]; 2.64 µM (inactive) in [18].

For the molecule `N#Cc1nn(-c2ccc(Cl)cc2)c(=N)c2c(N)n3nc(-c4ccccc4)cc3nc12`, the GI50 in experiment [1] is 38.5 µM (inactive); in [2], 1 µM (active); in [3], 1 µM (active); in [4], 0.546 µM (active); in experiment [5] it was 0.546 µM (active); in experiment [6], 0.594 µM (active). Also, the GI50 in experiment [7] was 1 µM (active); in experiment [8], 39.7 µM (inactive); in [19], 0.83 µM (active); in experiment [9], 1 µM (active); in experiment [11], 1 µM (active); in [12], 0.64 µM (active). The GI50 in experiment [13] was 28.2 µM (inactive); in experiment [14] it was 0.635 µM (active); in [15], 1 µM (active); in [16], > 100 µM (inactive); in experiment [17], 0.556 µM (active); in experiment [18] it was 1 µM (active).

`CCOCN1COCN/C1=N/C#N`: the GI50 in experiment [1], in experiment [2], in experiment [3], in experiment [4], in experiment [5] and in [7] was > 100 µM (inactive) each time. In addition, the GI50 in experiment [8], in experiment [19], in experiment [9], in [10], in [11] and in experiment [12] was > 100 µM (inactive) each time. Moreover, the GI50 was 0.094 µM (active) in experiment [13]; > 100 µM (inactive) in experiment [14]; > 100 µM (inactive) in experiment [15]; 17.9 µM (inactive) in experiment [16]; > 100 µM (inactive) in experiment [17]; > 100 µM (inactive) in [18].

For the molecule `Cc1ccc(NC(=O)c2cc3cc(/N=N/c4ccc(Br)cc4)ccc3oc2=O)cc1`, the GI50 in experiment [1] is > 100 µM (inactive); in experiment [2] it was 46.3 µM (inactive); in [3], 53 µM (inactive); in experiment [4] it was > 100 µM (inactive); in [6], > 100 µM (inactive); in experiment [7] it was > 10 µM (inactive). Also, the GI50 in experiment [8], in experiment [19], in experiment [9], in experiment [10], in [11] and in experiment [13] was > 100 µM (inactive) each time. Besides, the GI50 is 28.2 µM (inactive) in [14]; > 100 µM (inactive) in experiment [15]; 86.9 µM (inactive) in experiment [16]; > 100 µM (inactive) in experiment [17]; > 100 µM (inactive) in experiment [18].

In the case of `CC(C)N(C(=O)C12C3C4C5C3C1(C#N)C5C42)C(C)C` (stereo not drawn), the GI50 in experiment [1] was > 100 µM (inactive); in experiment [2], > 100 µM (inactive); in experiment [3], > 100 µM (inactive); in experiment [4], > 100 µM (inactive); in experiment [5], > 100 µM (inactive); in experiment [6] it was 35.3 µM (inactive). Further, the GI50 in experiment [7], in experiment [8], in [19], in experiment [9], in experiment [10] and in experiment [11] was > 100 µM (inactive) in each case. In addition, the GI50 in experiment [12] was > 100 µM (inactive); in experiment [14], > 100 µM (inactive); in [15], > 100 µM (inactive); in experiment [16] it was 11.6 µM (inactive); in experiment [17], > 100 µM (inactive); in experiment [18], > 100 µM (inactive).

As for `COC(=O)c1ncc2c(=O)[nH]c3ccccc3c2c1C(=O)OC`, the GI50 in [1], in experiment [2], in experiment [3], in experiment [4], in experiment [5] and in experiment [6] was > 100 µM (inactive) each time. The GI50 in [7] was > 100 µM (inactive); in experiment [8], > 100 µM (inactive); in [19], > 100 µM (inactive); in experiment [9] it was 22 µM (inactive); in [11], > 100 µM (inactive); in [12], > 100 µM (inactive). Moreover, the GI50 in [13], in [14], in [15], in [16] and in experiment [18] was > 100 µM (inactive) each time.

In the case of `CC1(C)OC(=O)[C@@](C)([C@H](O)c2ccccc2)O1`, the GI50 in [1] is > 100 µM (inactive); in experiment [2], > 100 µM (inactive); in [3], > 100 µM (inactive); in experiment [4], 28.6 µM (inactive); in experiment [5], 94.6 µM (inactive); in experiment [7], > 100 µM (inactive). Further, the GI50 in experiment [8] was 27.6 µM (inactive); in experiment [19] it was > 100 µM (inactive); in experiment [9] it was > 100 µM (inactive); in [10] it was 67 µM (inactive); in experiment [12], > 100 µM (inactive); in experiment [13], > 100 µM (inactive). For the same molecule, the GI50 is > 100 µM (inactive) in experiment [14]; 65 µM (inactive) in experiment [15]; > 100 µM (inactive) in experiment [16]; > 100 µM (inactive) in [17]; > 100 µM (inactive) in [18].

With `COc1ccc2cc3c4cc(OC)c(OC)cc4ccn3c2c1`, the GI50 in experiment [1], in [2], in experiment [3], in experiment [4], in experiment [5] and in experiment [6] was > 100 µM (inactive) each time. Besides, the GI50 in experiment [8], in [19], in [9], in [10], in [11] and in experiment [12] was > 100 µM (inactive) each time. The GI50 in experiment [13], in experiment [14], in experiment [16], in experiment [17] and in experiment [18] was > 100 µM (inactive) throughout.

These data come from ChEMBL document CHEMBL1201862, “PubChem BioAssay data set” (2004).
